Reference: patent US20240277874A1, “FLUORESCENCE-MAGNETIC RESONANCE DUAL-MODALITY CONTRAST AGENT, PREPARATION METHOD THEREFOR AND USE THEREOF” (HAINAN POLY PHARMACEUTICAL CO., LTD., priority 2021, published 2024)
Where two headings read alike, the source gives them in different places.

Tests used:
[1] = normal people, 20 minutes after intravenous injection; cited from earlier work
[2] = test system: ICR female mice; conditions: value marked * with footnote not given; 60 is not among the tested doses; cited from earlier work
[3] = test system: liver and kidney of ICR mice; experiment: Magnetic resonance T1-enhanced imaging (SE sequence) of liver and kidney after tail intravenous injection; format: in vivo; conditions: tail iv 5 mg/kg and 30 mg/kg, FIG. 1A
Procedure: (§1) • 1. IR-820 (new indocyanine green) and 3,6,9-trioxaundecamethylenediamine (1:1-1:5 eq.) were added to the DMSO solution. And then the triethylamine as the deacid reagent was added to the mixture. The mixture reacted at 20-80° C. for 2 h. The desired product B01 was obtained after precipitation. • 2. B01 and DOTA-NHS ([…] is N-hydroxysuccinimide) (1:1-1:3 eq.) were dissolved in DMSO solution, and 1-20 equivalents of triethylamine was added to the mixture. The mixture reacted at 10-40° C. for 24 h. The desired product B02 was obtained after precipitation. • 3. B02 was reacted with 0.5-2 equivalents of gadolinium chloride hydrate in DMSO at 10-50° C. for 10 h-50 h, and the desired product PL-001 was obtained after precipitation, yield of 83%, purity of 91%. • 4. The final product was dissolved in pure water to create a solution. The product was administered to ICR mice by tail intravenous injection at doses of 5 mg/kg and 30 mg/kg, respectively. Magnetic resonance T1-enhanced imaging (SE sequence) was performed on the liver and kidney of the mice before and after the administration of the product. After the magnetic resonance imaging was completed, the livers and kidneys were removed for fluorescence imaging. […] From the figure, it can be seen that the magnetic resonance enhancement and fluorescence imaging results of the liver and kidney were basically consistent.

[4] = Stability of the aqueous contrast agent solution at room temperature, relative content by HPLC; format: physicochemical; conditions: aqueous solution 0.1 mg/mL
Procedure: The aqueous solution of the contrast agent (0.1 mg/mL) was left at room temperature and its stability was measured by calibrating its relative content by the HPLC method at different time points, and the stability of the contrast agent is shown in Table 4.

[5] = test system: liver and kidney of ICR mice; experiment: Fluorescence imaging of removed livers and kidneys after magnetic resonance imaging; format: in vivo; conditions: 6 hours after administration, FIG. 1C
Procedure: as §1

[6] = test system: ICR female mice; conditions: mouse, in vivo, iv
Text: The maximum tolerated dose (MTD) of the contrast agent was preliminarily determined by administration to mice by tail intravenous injection.

[7] = Longitudinal relaxation rate (r1), 0.35T nuclear magnetic resonance imaging system, IR sequence; format: physicochemical; conditions: for r1 in BSA solution(1%): bovine serum protein solution (1%, w/w); for r1 in Water: pure water
Procedure: The longitudinal relaxation rate (r1) of the contrast agent was determined in a 0.35T small nuclear magnetic resonance imaging system using an IR […] sequence. The relaxation rates of the contrast agent in pure water and in bovine serum protein solution (1%, w/w) in different solvents are shown in Table 3 below.

[8] = test system: murine hepatocellular carcinoma cells H22; experiment: Cell entry rate of the contrast agent by flow cytometry; format: cell-based; conditions: compared among PL-002, PL-003, PL-004 and PL-006, FIG. 2
Procedure: The cell entry rate of the contrast agent at the cell level was determined by flow cytometers. Logarithmically grown murine hepatocellular carcinoma cells H22 were collected and spread evenly in 12-well plates, with an approximate cell number of 1.5×10^5 per well.

[9] = test system: major organs of liver in situ tumor mice; experiment: Tissue fluorescence of liver in situ tumor mice, small animal live imaging analyzer; format: in vivo; conditions: organs removed after magnetic resonance imaging, FIG. 4
Text: Liver in situ tumor mice tissue fluorescence was observed by a small animal live imaging analyzer (Perkin Elmer). After magnetic resonance imaging, the major organs of the mice were removed and observed by live imaging, and the results are shown in FIG. 4.

[10] = test system: H22 liver in situ tumors in Balb/c mice; experiment: Magnetic resonance T1-enhanced imaging of liver in situ tumors, GE 3.0T system; format: in vivo; conditions: Balb/c mice with H22 liver in situ tumor, 1 mg/mL solution, 5 mL/kg tail iv, FIG. 3
Procedure: Magnetic resonance imaging of liver in situ tumors with a contrast agent was performed using a GE 3.0T magnetic resonance imaging system. H22 cells were inoculated in Balb/c mice through liver in-situ injection, and liver conditions were observed through magnetic resonance. After the tumor was formed, 1 mg/mL contrast agent solution (5 mL/kg) was injected through the tail intravenous, and the liver was subjected to magnetic resonance T1-enhanced imaging at different time points after the administration of the agent.

Structure (SMILES) | eliminated from the blood [1] | MTD [2] | magnetic resonance T1-enhanced imaging of liver and kidney [3] | decomposition rate % ([4]; 0 h) | decomposition rate % ([4]; 2 h) | decomposition rate % ([4]; 24 h) | decomposition rate % ([4]; 48 h) | fluorescence imaging of liver and kidney [5] | MTD [6] | r1 in BSA solution(1%) [7] | r1 in Water [7] | cell entry rate [8] | distinction of tumor from normal tissue and fluorescence intensity [9] | magnetic resonance T1 enhancement of the tumor site [10]
CC1(C)C(/C=C/C=C/C=C/C=C2\N(CCCCS(=O)(=O)O)c3ccc4ccccc4c3C2(C)C)=[N+](CCCCS(=O)(=O)[O-])c2ccc3ccccc3c21 [ICG, Indocyanine green] | about 97% | 60* mg/kg | – | – | – | – | – | – | – | – | – | – | – | –
CC1(C)C(=CC=C2CCCC(C=CC3=[N+](CCCCS(=O)(=O)O)c4ccc5ccccc5c4C3(C)C)=C2NCCCOCCOCCOCCCNC(=O)CN2CCN(CC(=O)[O-])CCN(CC(=O)[O-])CCN(CC(=O)[O-])CC2)N(CCCCS(=O)(=O)O)c2ccc3ccccc3c21.[Gd+3] [PL-001] | – | – | significant enhancement of liver and kidney | 0% | 5.9% | 40.0% | 65.4% | significant fluorescence of the liver and kidney | 75 mg/kg | – | – | – | – | –
CC1(C)C(/C=C/C2=C(Oc3ccc(CCC(=O)NCCOCCOCCOCCNC(=O)CN4CCN(CC(=O)[O-])CCN(CC(=O)[O-])CCN(CC(=O)[O-])CC4)cc3)C(=C/C=C3/N(CCCCS(=O)(=O)O)c4ccc5ccccc5c4C3(C)C)/CCC2)=[N+](CCCCS(=O)(=O)O)c2ccc3ccccc3c21.[Gd+3] [PL-002] | – | – | – | 0% | <LOQ | <LOQ | <LOQ | – | 125 mg/kg | 16.2 mM⁻¹ s⁻¹ | 11.8 mM⁻¹ s⁻¹ | – | – | –
CC1(C)C(/C=C/C2=C(Oc3ccc(CCC(=O)NCCCCCCCCCCNC(=O)CN4CCN(CC(=O)[O-])CCN(CC(=O)[O-])CCN(CC(=O)[O-])CC4)cc3)C(=C/C=C3/N(CCCCS(=O)(=O)O)c4ccc5ccccc5c4C3(C)C)/CCC2)=[N+](CCCCS(=O)(=O)O)c2ccc3ccccc3c21.[Gd+3] [PL-003] | – | – | – | 0% | <LOQ | <LOQ | <LOQ | – | 150 mg/kg | 18.9 mM⁻¹ s⁻¹ | 15.4 mM⁻¹ s⁻¹ | fastest cellular entry | tumor is distinguished from the normal tissue and has better fluorescence intensity | better enhancement effect
CC1(C)C(/C=C/C2=C(Oc3ccc(CCC(=O)NCCOCCOCCNC(=O)CN4CCN(CC(=O)[O-])CCN(CC(=O)[O-])CCN(CC(=O)[O-])CC4)cc3)C(=C/C=C3/N(CCCCS(=O)(=O)O)c4ccc5ccccc5c4C3(C)C)/CCC2)=[N+](CCCCS(=O)(=O)O)c2ccc3ccccc3c21.[Gd+3] [PL-004] | – | – | – | 0% | <LOQ | <LOQ | <LOQ | – | 125 mg/kg | 17.6 mM⁻¹ s⁻¹ | 14.7 mM⁻¹ s⁻¹ | – | – | –
